Experimental findings from US10738057B2, “Tertiary alcohols as PI3K-γ inhibitors” (Incyte Corporation, priority 2017, dated 2020) are described below.

For test [1], the target named is PI3Kγ (p110γ) Recombinant Human Protein (Homo sapiens (Human), UniProt P48736). Kind of test: PI3K-γ scintillation proximity assay. The test is classed as biochemical. Conditions: 20 μM PIP2, 2 μM ATP, 13 nM PI3Kγ, 120 min, room temperature. The source says: Example B. PI3K-γ Scintillation Proximity Assay
[γ-^33P]ATP (10 mCi/mL) and Wheat Germ Agglutinin (WGA) YSi SPA Scintillation Beads was purchased from PerkinElmer (Waltham, Mass.). Lipid kinase substrate, D-myo-Phosphatidylinositol 4,5-bisphosphate (PtdIns(4,5)P2)D (+)-sn-1,2-di-O-octanoylglyceryl, 3-O-phospho linked (PIP2), CAS 204858-53-7, was purchased from Echelon Biosciences (Salt Lake City, Utah). PI3Kγ (p110γ) Recombinant Human Protein was purchased from Life technology (Grand Island, N.Y.). ATP, MgCl2, DTT, EDTA, MOPS and CHAPS were purchased from SigmaAldrich (St. Louis, Mo.).
(§1) The kinase reaction was conducted in polystyrene 384-well Greiner Bio-one white plate from Thermo Fisher Scientific in a final volume of 25 μL. Inhibitors were first diluted serially in DMSO and added to the plate wells before the addition of other reaction components. The final concentration of DMSO in the assay was 2%. The PI3Kγ assay was carried out at room temperature in 20 mM MOPS, pH 6.7, 10 mM MgCl2, 5 mM DTT and CHAPS 0.03%. Reactions were initiated by the addition of ATP, the final reaction mixture consisted of 20 μM PIP2, 2 μM ATP, 0.5 μCi [γ-^33P] ATP, 13 nM PI3Kγ. Reactions were incubated for 120 min and terminated by the addition of 40 μL SPA beads suspended in quench buffer: 163 mM potassium phosphate pH 7.8, 20% glycerol, 25 mM EDTA. The final concentration of SPA beads is 1.0 mg/mL. After the plate sealing, plates were shaken overnight at room temperature and centrifuged at 1500 rpm for 10 min, the radioactivity of the product was determined by scintillation counting on Topcount (Perkin-Elmer). IC50 determination was performed by fitting the curve of percent of the solvent control activity versus the log of the inhibitor concentration using the GraphPad Prism 6.0 software.

In test [2] the target is PI3Kδ (p110δ/p85α) Recombinant Human Protein (Homo sapiens (Human), UniProt O00329). Put plainly: PI3Kδ scintillation proximity assay. It is filed as biochemical. Conditions: 20 μM PIP2, 2 μM ATP, 3.4 nM PI3Kδ, 120 min, room temperature; read-out: PI3Kδ IC50. Here is the method: PI3Kδ Scintillation Proximity Assay
Sequence of PI3Kδ (p110δ/p85α) Recombinant Human Protein (O00329 whole entry): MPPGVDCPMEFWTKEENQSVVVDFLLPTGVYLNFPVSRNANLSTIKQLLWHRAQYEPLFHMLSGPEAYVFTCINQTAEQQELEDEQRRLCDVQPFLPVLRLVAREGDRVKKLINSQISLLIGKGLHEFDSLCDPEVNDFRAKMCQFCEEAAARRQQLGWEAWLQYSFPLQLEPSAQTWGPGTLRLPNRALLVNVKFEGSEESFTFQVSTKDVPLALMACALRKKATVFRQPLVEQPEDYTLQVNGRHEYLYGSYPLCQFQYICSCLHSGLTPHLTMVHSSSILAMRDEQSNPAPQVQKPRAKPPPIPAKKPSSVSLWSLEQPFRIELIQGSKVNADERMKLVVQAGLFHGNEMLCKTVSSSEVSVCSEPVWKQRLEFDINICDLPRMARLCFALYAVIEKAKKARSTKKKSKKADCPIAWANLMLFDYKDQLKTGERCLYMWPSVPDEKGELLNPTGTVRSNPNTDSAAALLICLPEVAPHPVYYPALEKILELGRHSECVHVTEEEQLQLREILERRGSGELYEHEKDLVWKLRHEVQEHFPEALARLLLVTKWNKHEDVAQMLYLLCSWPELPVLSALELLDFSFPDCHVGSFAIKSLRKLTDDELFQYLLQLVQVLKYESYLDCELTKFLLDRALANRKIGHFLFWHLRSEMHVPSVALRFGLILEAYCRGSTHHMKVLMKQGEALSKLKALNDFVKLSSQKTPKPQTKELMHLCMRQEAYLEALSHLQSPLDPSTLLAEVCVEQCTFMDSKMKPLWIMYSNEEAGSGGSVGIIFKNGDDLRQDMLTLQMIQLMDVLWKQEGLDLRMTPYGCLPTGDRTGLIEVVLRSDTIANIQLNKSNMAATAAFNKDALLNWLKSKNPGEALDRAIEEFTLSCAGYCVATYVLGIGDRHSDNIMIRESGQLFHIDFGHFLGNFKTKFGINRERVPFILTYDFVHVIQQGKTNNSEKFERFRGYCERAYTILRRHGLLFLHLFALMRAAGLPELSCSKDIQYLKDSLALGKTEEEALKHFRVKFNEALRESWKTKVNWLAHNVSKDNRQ
Sequence of PI3Kδ (p110δ/p85α) Recombinant Human Protein (P27986 whole entry partner): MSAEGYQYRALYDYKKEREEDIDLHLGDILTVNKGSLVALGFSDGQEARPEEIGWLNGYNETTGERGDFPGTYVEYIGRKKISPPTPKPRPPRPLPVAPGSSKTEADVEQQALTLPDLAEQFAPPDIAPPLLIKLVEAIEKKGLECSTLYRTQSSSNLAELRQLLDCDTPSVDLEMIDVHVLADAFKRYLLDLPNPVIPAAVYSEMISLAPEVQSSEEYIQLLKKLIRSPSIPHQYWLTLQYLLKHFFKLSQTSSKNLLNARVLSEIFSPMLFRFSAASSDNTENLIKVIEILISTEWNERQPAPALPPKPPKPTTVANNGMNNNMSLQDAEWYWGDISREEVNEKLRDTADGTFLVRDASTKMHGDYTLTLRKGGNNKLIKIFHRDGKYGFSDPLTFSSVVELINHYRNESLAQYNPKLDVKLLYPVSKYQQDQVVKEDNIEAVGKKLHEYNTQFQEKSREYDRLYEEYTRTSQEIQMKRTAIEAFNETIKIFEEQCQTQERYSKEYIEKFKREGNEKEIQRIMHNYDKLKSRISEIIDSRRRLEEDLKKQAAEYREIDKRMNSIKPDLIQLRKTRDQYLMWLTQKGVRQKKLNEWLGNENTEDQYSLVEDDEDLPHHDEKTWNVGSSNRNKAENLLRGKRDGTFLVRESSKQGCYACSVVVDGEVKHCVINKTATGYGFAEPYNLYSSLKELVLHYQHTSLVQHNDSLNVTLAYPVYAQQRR
[γ-^33P]ATP (10 mCi/mL) and Wheat Germ Agglutinin (WGA) YSi SPA Scintillation Beads was purchased from PerkinElmer (Waltham, Mass.). […] PI3Kδ (p110δ/p85α) Recombinant Human Protein was purchased from Eurofins (St Charles, Mo.). ATP, MgCl2, DTT, EDTA, MOPS and CHAPS were purchased from SigmaAldrich (St. Louis, Mo.).
as §1, with “PI3Kδ” for “PI3Kγ”, “ATP, 13 nM PI3Kγ. Reactions were incubated for 120 min and terminated by the addition of 40 μL SPA beads suspended in quench buffer: 163 mM potassium phosphate pH 7.8, 20% glycerol, 25 mM EDTA.” left out, “(PerkinElmer).” for “(Perkin-Elmer).”
On the technique in general: In a scintillation proximity assay essentially only radioactivity close to the scintillant gives light.

Structures can show the parent of a compound that is named as a salt.

Sequence of PI3Kγ (p110γ) Recombinant Human Protein (P48736 whole entry): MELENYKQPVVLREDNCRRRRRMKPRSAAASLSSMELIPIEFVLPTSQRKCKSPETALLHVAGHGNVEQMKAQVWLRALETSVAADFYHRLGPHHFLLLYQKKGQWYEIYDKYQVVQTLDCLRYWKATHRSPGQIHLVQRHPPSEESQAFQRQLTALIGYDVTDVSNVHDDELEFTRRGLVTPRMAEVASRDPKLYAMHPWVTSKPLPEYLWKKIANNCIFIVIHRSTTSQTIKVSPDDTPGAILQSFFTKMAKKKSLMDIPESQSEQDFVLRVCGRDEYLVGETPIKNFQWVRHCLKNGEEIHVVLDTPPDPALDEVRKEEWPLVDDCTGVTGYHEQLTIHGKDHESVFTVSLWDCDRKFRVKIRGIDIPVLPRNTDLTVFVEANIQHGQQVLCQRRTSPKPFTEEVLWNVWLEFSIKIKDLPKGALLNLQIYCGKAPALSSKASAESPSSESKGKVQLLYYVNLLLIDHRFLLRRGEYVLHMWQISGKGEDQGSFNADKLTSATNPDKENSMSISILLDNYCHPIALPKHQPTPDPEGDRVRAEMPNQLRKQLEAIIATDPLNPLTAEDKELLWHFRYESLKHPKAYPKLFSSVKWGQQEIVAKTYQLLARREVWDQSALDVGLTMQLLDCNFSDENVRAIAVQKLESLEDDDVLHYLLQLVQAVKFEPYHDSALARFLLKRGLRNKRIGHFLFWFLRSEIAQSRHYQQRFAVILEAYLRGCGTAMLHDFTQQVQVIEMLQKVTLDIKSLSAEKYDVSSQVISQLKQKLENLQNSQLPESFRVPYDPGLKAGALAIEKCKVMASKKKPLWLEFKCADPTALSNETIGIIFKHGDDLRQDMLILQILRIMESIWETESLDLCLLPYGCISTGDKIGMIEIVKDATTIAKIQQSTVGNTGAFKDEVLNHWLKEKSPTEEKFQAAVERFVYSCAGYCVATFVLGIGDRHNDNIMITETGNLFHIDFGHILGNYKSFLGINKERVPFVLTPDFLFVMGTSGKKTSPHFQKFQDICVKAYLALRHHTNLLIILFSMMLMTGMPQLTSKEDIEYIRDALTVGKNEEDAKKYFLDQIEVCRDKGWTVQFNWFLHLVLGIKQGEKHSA

The IC50 is the concentration needed to halve the response being measured. Turning to `CC(O)(c1cc(-c2cnc3c(N)nc(C(F)(F)F)cn23)c2ccn(S(=O)(=O)c3ccccc3)c2c1)C(F)(F)F` (racemic) [Example 224, 2-(4-(8-Amino-6-(trifluoromethyl)imidazo[1,2-a]pyrazin-3-yl)-1-(phenylsulfonyl)-1H-indol-6-yl)-1,1,1-trifluoropropan-2-ol], the IC50 in test [1] fell in the range of 100 to 500 nM; in test [2], 500 to 2000 nM.

On to `[2H]C([2H])([2H])c1ccc(C(O)(C(C)(C)O)C(F)(F)F)cc1-c1cnc2c(N)nc(C(F)(F)F)cn12` (racemic) [Example 235, 2-(3-(8-Amino-6-(trifluoromethyl)imidazo[1,2-a]pyrazin-3-yl)-4-(methyl-d3)phenyl)-1,1,1-trifluoro-3-methylbutane-2,3-diol trifluoroacetate salt], for which the concentration for half-maximal inhibition (IC50) in test [1] is less than 100 nM; in test [2], 100 to 500 nM.

With `Cc1ccc(C(C)(O)C(F)(F)C(F)(F)F)cc1-c1cnc2c(N)nc(C(F)(F)F)cn12` (single isomer, unassigned) [Example 59, 2-(3-(8-Amino-6-(trifluoromethyl)imidazo[1,2-a]pyrazin-3-yl)-4-methylphenyl)-3,3,4,4,4-pentafluorobutan-2-ol], the 50% inhibitory concentration (IC50) in test [1] was less than 100 nM; in test [2] it was 500 to 2000 nM.

Turning to `Cc1ccc(C(C)(O)C(F)(F)F)cc1-c1cnc2c(N)nc(C(=O)NCC(C)(C)O)cn12` (single isomer, unassigned) [Example 62, 8-amino-N-(2-hydroxy-2-methylpropyl)-3-(2-methyl-5-(1,1,1-trifluoro-2-hydroxypropan-2-yl)phenyl)imidazo[1,2-a]pyrazine-6-carboxamide], the 50% inhibitory concentration (IC50) was less than 100 nM in test [1] and 100 to 500 nM in test [2].

As to `[2H]C([2H])([2H])n1nccc1-c1cn2c(-c3cc(C(O)(CO)C(F)(F)F)ccc3C)cnc2c(N)n1` (single isomer, unassigned) [Example 67, 2-(3-(8-Amino-6-(1-(methyl-d3)-1H-pyrazol-5-yl)imidazo[1,2-a]pyrazin-3-yl)-4-methylphenyl)-3,3,3-trifluoropropane-1,2-diol trifluoroacetate salt], the half-inhibitory concentration (IC50) was less than 100 nM in test [1] and 100 to 500 nM in test [2].

`CCOC(=O)C1CC1c1cn2c(-c3cc(C(C)(O)C(F)F)ccc3C)cnc2c(N)n1` (single isomer, unassigned) [Example 74, Ethyl 2-(8-amino-3-(5-(1,1-difluoro-2-hydroxypropan-2-yl)-2-methylphenyl)imidazo[1,2-a]pyrazin-6-yl)cyclopropane-1-carboxylate trifluoroacetate salt]: the IC50 in test [1] and in test [2] was 500 to 2000 nM throughout.

With `Cc1ccc(C(C)(O)C(F)F)cc1-c1cnc2c(N)nc(C3CC3CO)cn12` (single isomer, unassigned) [Example 80, 2-(3-(8-Amino-6-(2-(hydroxymethyl)cyclopropyl)imidazo[1,2-a]pyrazin-3-yl)-4-methylphenyl)-1,1-difluoropropan-2-ol], the IC50 in test [1] was less than 100 nM; in test [2], 500 to 2000 nM.

Regarding `Cc1ccc(C(C)(O)C(F)(F)F)cc1-c1cnc2c(N)ncnn12` (stereo not drawn) [Example 3, 2-(3-(4-Aminoimidazo[2,1-f][1,2,4]triazin-7-yl)-4-methylphenyl)-1,1,1-trifluoropropan-2-ol], the half-maximal inhibitory concentration (IC50) in test [1] is less than 100 nM; in test [2] it was 500 to 2000 nM.

As for `Cc1cn2c(-c3cc(C(C)(O)C(F)(F)F)ccc3C)cnc2c(N)n1` (stereo not drawn) [Example 7, 2-(3-(8-Amino-6-methylimidazo[1,2-a]pyrazin-3-yl)-4-methylphenyl)-1,1,1-trifluoropropan-2-ol], the results for the half-inhibitory concentration (IC50) in test [1] and in test [2] were less than 100 nM and 100 to 500 nM, respectively.

In the case of `Cc1ccc(C(O)(CCNC2CCOCC2)C(F)(F)F)cc1-c1cnc2c(N)nc(C(F)(F)F)cn12` (stereo not drawn) [Example 17, 2-(3-(8-Amino-6-(trifluoromethyl)imidazo[1,2-a]pyrazin-3-yl)-4-methylphenyl)-1,1,1-trifluoro-4-((tetrahydro-2H-pyran-4-yl)amino)butan-2-ol bis(2,2,2-trifluoroacetate)], the figures for the 50% inhibitory concentration (IC50) in test [1] and in test [2] were less than 100 nM and 500 to 2000 nM, respectively.

With `Cc1ccc(C(C)(O)C(F)F)cc1-c1cnc2c(N)nc(-c3cncnc3)cn12` (stereo not drawn) [Example 32, 2-(3-(8-Amino-6-(pyrimidin-5-yl)imidazo[1,2-a]pyrazin-3-yl)-4-methylpheny1)-1,1-difluoropropan-2-ol], the values for the IC50 in test [1] and in test [2] were less than 100 nM and 500 to 2000 nM, respectively.

In the case of `Cc1cc(F)c(C(C)(O)C(F)(F)F)cc1-c1cnc2c(N)nc(C(F)(F)F)cn12` (stereo not drawn) [Example 53, 2-(5-(8-Amino-6-(trifluoromethyl)imidazo[1,2-a]pyrazin-3-yl)-2-fluoro-4-methylphenyl)-1,1,1-trifluoropropan-2-ol], the 50% inhibitory concentration (IC50) in test [1] is less than 100 nM.

For `Cc1cnc(C(C)(O)C(F)(F)F)cc1-c1cnc2c(N)nc(C(F)(F)F)cn12` (stereo not drawn) [Example 54, 2-(4-(8-Amino-6-(trifluoromethyl)imidazo[1,2-a]pyrazin-3-yl)-5-methylpyridin-2-yl)-1,1,1-trifluoropropan-2-ol], the half-inhibitory concentration (IC50) in test [1] was less than 100 nM.

Turning to `CC(O)(c1cc(-c2cnc3c(N)nc(C(F)(F)F)cn23)ccc1F)C(F)(F)F` (stereo not drawn) [Example 55, 2-(5-(8-Amino-6-(trifluoromethyl)imidazo[1,2-a]pyrazin-3-yl)-2-fluorophenyl)-1,1,1-trifluoropropan-2-ol], in test [1], the IC50 is less than 100 nM.

For the compound `CC(O)(c1cccc(-c2cnc3c(N)nc(C(F)(F)F)cn23)c1)C(F)(F)F` (stereo not drawn) [Example 56, 2-(3-(8-Amino-6-(trifluoromethyl)imidazo[1,2-a]pyrazin-3-yl)phenyl)-1,1,1-trifluoropropan-2-ol], the IC50 in test [1] is less than 100 nM.

With `CC(O)(c1ccc(F)c(-c2cnc3c(N)nc(C(F)(F)F)cn23)c1)C(F)(F)F` (stereo not drawn) [Example 57, 2-(3-(8-Amino-6-(trifluoromethyl)imidazo[1,2-a]pyrazin-3-yl)-4-fluorophenyl)-1,1,1-trifluoropropan-2-ol], the 50% inhibitory concentration (IC50) in test [1] was less than 100 nM.

As for `Cc1ncc(C(C)(O)C(F)(F)F)cc1-c1cnc2c(N)nc(C(F)(F)F)cn12` (stereo not drawn) [Example 58, 2-(5-(8-Amino-6-(trifluoromethyl)imidazo[1,2-a]pyrazin-3-yl)-6-methylpyridin-3-yl)-1,1,1-trifluoropropan-2-ol], the IC50 in test [1] lay in the range of 100 to 500 nM.

Regarding `Cc1ccc(C(C)(O)C(F)F)cc1-c1cnc2c(N)nc(N3CCC(C#N)CC3)cn12` (stereo not drawn) [Example 64, 1-(8-Amino-3-(5-(1,1-difluoro-2-hydroxypropan-2-yl)-2-methylphenyl)imidazo[1,2-a]pyrazin-6-yl)piperidine-4-carbonitrile], the IC50 in test [1] was less than 100 nM; in test [2], 500 to 2000 nM.

On to `Cc1ccc(C(C)(O)C(F)(F)F)cc1-c1cnc2c(N)nc(N3CCC(O)CC3)cn12` (stereo not drawn) [Example 65, 1-(8-Amino-3-(2-methyl-5-(1,1,1-trifluoro-2-hydroxypropan-2-yl)phenyl)imidazo[1,2-a]pyrazin-6-yl)piperidin-4-ol], for which the IC50 in test [1] was less than 100 nM; in test [2] it was 100 to 500 nM.

`Cc1ccc(C(C)(O)C(F)F)cc1-c1cnc2c(N)nc(C3CC3C(=O)N3CCN(C)CC3)cn12` (stereo not drawn) [Example 77, (2-(8-Amino-3-(5-(1,1-difluoro-2-hydroxypropan-2-yl)-2-methylphenyl)imidazo[1,2-a]pyrazin-6-yl)cyclopropyl)(4-methylpiperazin-1-yl)methanone trifluoroacetate salt]: the IC50 in test [1] is less than 100 nM; in test [2], 100 to 500 nM.

Consider `Cc1ccc(C(C)(O)C(F)(F)F)cc1-c1cnc2c(N)nc(CC(=O)N(C)C)cn12` (stereo not drawn) [Example 169, 2-(8-amino-3-(2-methyl-5-(1,1,1-trifluoro-2-hydroxypropan-2-yl)phenyl)imidazo[1,2-a]pyrazin-6-yl)-N,N-dimethylacetamide trifluoroacetate salt], for which the IC50 in test [1] is 100 to 500 nM; in test [2] it was 500 to 2000 nM.
